# Measurements as given in patent US20250197461A1, “Insect-derived short peptide for improving abscisic acid (ABA) content in cruciferous plant” (Gannan Normal University, priority 2023, published 2025).
# System: Arabidopsis thaliana leaves
# Experiment: Non-targeted metabolomics of Arabidopsis thaliana leaves treated with short peptide
# Format: in vivo
# Conditions: 0.01 mg/mL, vs GFP control
# Protocol: In this experiment, the materials used for metabonomics analysis and phytohormone detection are Arabidopsis thaliana samples with consistent growth status. Synthetic short peptide of GSS1-PI with the corresponding concentration and mass was weighed and dissolved in 0.1% DMSO to obtain a 0.01 mg/mL treatment solution. A wild-type Arabidopsis thaliana plant of about four weeks old was taken, two cotyledons were collected and mechanically damaged to obtain three small holes, 2 μL of the GSS1-PI solution was added dropwise into each small hole, while GFP solution was used as the control group. After 24 h and 48 h of treatment, approximately 0.2 g of Arabidopsis thaliana leaves were collected, and each treatment had three biological replicates. The leaves were quickly placed in liquid nitrogen and stored in a −80° C. ultra-low temperature refrigerator for subsequent phytohormone group detection and metabolomic analysis.
# 100 mg of Arabidopsis thaliana leaves was taken and added with liquid nitrogen for full grinding, and the fine powder was put in a 1.5 mL centrifuge tube. 500 μL of 80% methanol aqueous solution was pipette in the centrifuge tube and subjected to vortex oscillation to mix well, and the centrifuge tube was put on ice for 5 min. After standing, the mixture was centrifuged at 15000 g at 4° C. for 20 min. Then, 200 μL of supernatant was pipette and diluted with appropriate amount of mass spectrometry water until the methanol content in the solution was 53%. The dilution was centrifuged again for 20 min, the supernatant was retained and loaded for LC-MS analysis of the sample.
# Related instruments were set as follows: chromatographic column temperature: 40° C.; injection flow rate: 0.2 mL/min; Positive ion mode: 0.1% formic acid for mobile phase A; mass grade methanol for mobile phase B; Negative ion mode: 5 mM ammonium acetate for mobile phase A, and mass grade methanol for mobile phase B.
# The scanning range was m/z 100-1500: the setting of ESI signal source was as follows: spray voltage: […]; sheath gas flow rate: 35 psi; auxiliary gas flow rate: 10 L/min; ion transport tube temperature: 320° C.; iontophoresis RF frequency: 60; auxiliary heater temperature: 350° C.; MS/MS secondary scanning is set to dependency scanning data.
# After the experiment was completed, the relevant data files were imported into the database search software for analysis and processing, and the residence time, mass-to-charge ratio and other related parameters of each metabolite were simply screened and checked. In order to identify more accurately, the different samples were peak-aligned, with the retention time deviation of 0.2 min and mass deviation of 5 ppm. Then peak extraction and peak area quantification were carried out to integrate the target ions, and then ion peaks were predicted by molecular formula and compared with local data. In order to remove the interference of background ions, the original quantitative results were standardized and blank sample controls were added. Finally, the relative quantitative results of the relevant metabolites were obtained and identified.
# Multivariate statistical analysis of metabolite data included two parts, component analysis (PCA) and partial least squares discriminant analysis (PLS-DA). The data was converted by metaX, a metabonomics processing software, to get the VIP value of each metabolite. In univariate analysis, the statistical significance (P value) between the two groups of metabolites was analyzed by t test, and the fold change of metabolites between the two groups, that is, FC value, was calculated. The default screening criteria for differential metabolites were VIP>1, P value<0.05 and FC≥2 or FC≤0.5.
sequence,measurement,setting,value
PDYKQKLRDSKAWESLETIGIPLDADVM (insect-derived short peptide) [GSS1-PI],log2FC 2-Phenylacetamide,24 h,0.608
same,"log2FC 3,4,5-Trimethoxycinnamic acid",24 h,−1.348
same,log2FC (−)-chimonanthine,24 h,0.731
same,log2FC Coumarin,24 h,−1.039
same,log2FC Cytosine,24 h,1.096
same,log2FC Eriodictyol,24 h,0.908
same,log2FC Gracillin,24 h,−1.823
same,log2FC Hesperidin,24 h,0.708
same,log2FC Hippuric acid,24 h,−0.465
same,log2FC L-arginine,24 h,−0.600
same,log2FC Madecassic acid,24 h,1.041
same,log2FC Methyl dihydrojasmonate,24 h,0.784
same,log2FC N-Methyltryptamine,24 h,−0.651
same,log2FC Ptaquiloside,24 h,−1.418
same,log2FC Quercetin 3-O-sophoroside,24 h,−2.173
same,log2FC Rhoifolin,24 h,0.699
same,log2FC Spectinomycin,24 h,0.579
same,log2FC Tiglic acid,24 h,−0.663
same,log2FC cis-2-Decenoic acid,24 h,−0.599
same,log2FC α-Linolenoyl ethanolamide,24 h,1.586
same,log2FC 2′-O-Methyladenosine,48 h,1.543
same,"log2FC 3,4,5-Trimethoxycinnamic acid",48 h,−2.132
same,log2FC 5α-Dihydrotestosterone glucuronide,48 h,−1.186
same,log2FC 5′-Deoxy-5′-(Methylthio)Adenosine,48 h,1.330
same,log2FC 20-Hydroxyecdysone,48 h,−1.153
same,log2FC Allantoic acid,48 h,−1.815
same,log2FC Alpha-Mangostin,48 h,1.363
same,log2FC Benzamide,48 h,1.564
same,log2FC Camelliaside A,48 h,1.640
same,log2FC Cimifugin,48 h,1.872
same,log2FC Coumarin,48 h,−1.930
same,log2FC Cucurbitacin E,48 h,1.309
same,log2FC DL-Methionine,48 h,1.393
same,log2FC DL-Panthenol,48 h,1.615
same,log2FC N-(p-Coumaroyl) serotonin,48 h,−1.010
same,log2FC Neopterin,48 h,1.709
same,log2FC Saikosaponin B4,48 h,−1.655
same,log2FC Sclareolide,48 h,−2.003
same,log2FC Scopoletin,48 h,−1.518
same,log2FC Sinapinic acid,48 h,−1.203
